Data taken from patent EP0429372A1, “2-Azolyl nicotinate derivatives as herbicides” (RHONE-POULENC AGROCHIMIE, priority 1989, dated 1991).

Key:
Type in all cases: in vivo
Digitaria sanguinalis = assay: Example B: post-emergence herbicidal application, pot test
Description: (§1) Dans des pots de 7 x 7 x 8 cm remplis de terre agricole légère, on sème un nombre de graines déterminé en fonction de l'espèce végétale et de la grosseur de la graine.
(§2) On recouvre ensuite les graines d'une couche de terre d'environ 3 mm d'épaisseur et on laisse germer la graine jusqu'à ce qu'elle donne naissance à une plantule au stade convenable. Le stade de traitement pour les graminées est le stade "deuxième feuille en formation ". Le stade de traitement pour les dicotylédones, est le stade "cotylédons étalés, première feuille vraie en développement".
(§3) Les pots sont alors traités par pulvérisation de bouillie en quantité correspondant à une dose volumique d'application de 500 l/ha et contenant la matière active à la concentration désirée.
(§4) La bouille a été préparée de la même manière qu'à l'exemple A.
(§5) Les pots traités sont ensuite placés dans des bacs destinés à recevoir l'eau d'arrosage, en subirrigation, et maintenus pendant 24 jours à température ambiante sous 70 % d'humidité relative.
(§6) Au bout de 24 jours, on mesure un pourcentage (D) de destruction du nombre de pieds dans le pot traité par rapport au nombre de plantes dans les pots non traités (témoin). On mesure, sur les plantes traitées restantes, le pourcentage de réduction de taille (RT) par rapport aux plantes témoin.
(§7) Le pourcentage du volume foliaire non détruit par le produit est donc donné par la formule : [formula]
(§8) Cette valeur A est transformée en notation de 0 à 5 selon l'échelle suivante :
(§9) Les résultats obtenus sont présentés après le tableau A pour des doses d'application de 4000 g/ha.

Sinapis alba = assay: as above
Description: as §1, §2, §3, §4, §5, §6, §7, §8, §9

Solanum nigrum [1] = assay: as above
Description: as §1, §2, §3, §4, §5, §6, §7, §8, §9

Ipomea purpurea = assay: as above
Description: as §1, §2, §3, §4, §5, §6, §7, §8, §9

Lolium multiflorum = assay: as above
Description: as §1, §2, §3, §4, §5, §6, §7, §8, §9

Echinochloa crusgalli = assay: as above
Description: as §1, §2, §3, §4, §5, §6, §7, §8, §9

Solanum nigrum [2] = assay: Example C: selectivity test in major crops, post-emergence application
Description: as §1
as §2, with “formation".” for “formation ".”
as §3
(§10) La bouillie a été préparée de la même manière qu'à l'exemple A.
as §5, §6
(§11) Le pourcentage de volume foliaire non détruit par le produit est donc donné par la formule : [formula]
as §8
(§12) Ainsi, un produit est jugé comme sélectif vis à vis de la culture lorsque la valeur A notée est de 0 ou 1.
(§13) Les résultats obtenus sont présentés dans l'exemple C pour des doses d'application comprises entre 0,5 et 4 kg de matière active par hectare selon les produits.

Xanthium pennsylvanicum = assay: as above
Description: as §1
as §2, with “formation".” for “formation ".”
as §3, §10, §5, §6, §11, §8, §12, §13

Sesbania exaltata = assay: as above
Description: as §1
as §2, with “formation".” for “formation ".”
as §3, §10, §5, §6, §11, §8, §12, §13

Viola tricolor = assay: as above
Description: as §1
as §2, with “formation".” for “formation ".”
as §3, §10, §5, §6, §11, §8, §12, §13

Ipomea pupurea = assay: as above
Description: as §1
as §2, with “formation".” for “formation ".”
as §3, §10, §5, §6, §11, §8, §12, §13

Triticum aestivum = assay: as above; settings: crop (Blé), dose 2 kg/ha, 24 days, score 0-5, 0 or 1 = selective; also: ranges in brackets are in %
Description: as §1
as §2, with “formation".” for “formation ".”
as §3, §10, §5, §6, §11, §8, §12, §13

Oryza sativa = assay: as above; settings: crop (Riz), dose 2 kg/ha, 24 days, score 0-5, 0 or 1 = selective; also: ranges in brackets are in %
Description: as §1
as §2, with “formation".” for “formation ".”
as §3, §10, §5, §6, §11, §8, §12, §13

Zea mays = assay: as above; settings: crop (Maïs), dose 2 kg/ha, 24 days, score 0-5, 0 or 1 = selective; also: ranges in brackets are in %
Description: as §1
as §2, with “formation".” for “formation ".”
as §3, §10, §5, §6, §11, §8, §12, §13

[3] = weed, dose 1 kg/ha, 24 days, score 0-5
[4] = 4 kg/ha, rated after 24 days, score 0-5 from % leaf volume not destroyed

Row | SMILES | ACTIVITE DE POST-LEVEE DIG (Digitaria sanguinalis; 4000 g/ha, 576 h) | ACTIVITE DE POST-LEVEE SIN (Sinapis alba; 4000 g/ha, 576 h) | ACTIVITE DE POST-LEVEE SOL (Solanum nigrum [1]; 4000 g/ha, 576 h) | ACTIVITE DE POST-LEVEE IPO (Ipomea purpurea; 4000 g/ha, 576 h) | ACTIVITE DE POST-LEVEE LOL (Lolium multiflorum; 4000 g/ha, 576 h) | ACTIVITE DE POST-LEVEE ECH (Echinochloa crusgalli; 4000 g/ha, 576 h) | other results
1 | Cc1ccccc1-c1nc(-c2ncccc2C(=O)O)n[nH]1 [compound 54] | 3 (30 à 50) | 1 (70 à 90) | 3 (30 à 50) | 0 (90 à 100) | 3 (30 à 50) | 2 (50 à 70) | 
2 | O=C(O)c1cccnc1-c1nc(-c2ccccc2)nn1S(=O)(=O)N1CCCC1 [compound 15] | 3 (30 à 50) | 1 (70 à 90) | 1 (70 à 90) | 2 (50 à 70) | 3 (30 à 50) | 3 (30 à 50) | 
3 | O=C(O)c1cccnc1-c1n[nH]c(-c2sc(Cl)c(Cl)c2Cl)n1 [compound 44] | 1 (70 à 90) | 4 (10 à 30) | 1 (70 à 90) | 3 (30 à 50) | 0 (90 à 100) | 2 (50 à 70) | 
4 | CN(C)S(=O)(=O)n1c(-c2ncccc2C(=O)O)nc2ccccc21 [compound 75, 2-(1-N,N diméthylsulfamoyl 2-benzimidazolyl) 3-carboxy pyridine] |  |  |  |  |  |  | ACTIVITE HERBICIDE DE POST LEVEE S O L (Solanum nigrum [2]; [3]): 5 (O à 10); ACTIVITE HERBICIDE DE POST LEVEE X A N (Xanthium pennsylvanicum; [3]): 5 (O à 10); ACTIVITE HERBICIDE DE POST LEVEE S E S (Sesbania exaltata; [3]): 5 (O à 10); ACTIVITE HERBICIDE DE POST LEVEE V I O (Viola tricolor; [3]): 4 (10 à 30); ACTIVITE HERBICIDE DE POST LEVEE I P O (Ipomea pupurea; weed, post-emergence, dose 1 kg/ha, 24 days, score 0-5): 5 (O à 10); ACTIVITE DE POST-LEVEE DIG (Digitaria sanguinalis; [4]): 0 (90 à 100); ACTIVITE DE POST-LEVEE SIN (Sinapis alba; [4]): 5 (O à 10); ACTIVITE DE POST-LEVEE SOL (Solanum nigrum [1]; [4]): 5 (O à 10); ACTIVITE DE POST-LEVEE IPO (Ipomea purpurea; [4]): 4 (10 à 30); ACTIVITE DE POST-LEVEE ECH (Echinochloa crusgalli; [4]): 0 (90 à 100)
5 | O=C(O)c1cccnc1-c1n[nH]c(-c2cccc(Cl)c2)n1 [compound 48] | 3 (30 à 50) | 2 (50 à 70) | 1 (70 à 90) | 3 (30 à 50) | 2 (50 à 70) | 3 (30 à 50) | 
6 | O=C(O)c1cccnc1-c1n[nH]c(C=Cc2ccccc2)n1 [compound 67] | 2 (50 à 70) | 2 (50 à 70) | 2 (50 à 70) | 3 (30 à 50) | 0 (90 à 100) | 0 (90 à 100) | 
7 | O=C(O)c1cccnc1-c1n[nH]c(-c2cc(Cl)cc(Cl)c2)n1 [compound 50] | 2 (50 à 70) | 0 (90 à 100) | 0 (90 à 100) | 3 (30 à 50) | 0 (90 à 100) | 3 (30 à 50) | 
8 | CN(C)S(=O)(=O)n1nc(C(C)(C)C)nc1-c1ncccc1C(=O)O [compound 12] | 0 (90 à 100) | 4 (10 à 30) | 4 (10 à 30) | 3 (30 à 50) | 0 (90 à 100) | 0 (90 à 100) | 
9 | COC(=O)c1cccnc1-c1nc(-c2ccccc2)nn1S(=O)(=O)c1ccccc1Cl [compound 24] | 0 (90 à 100) | 3 (30 à 50) | 3 (30 à 50) | 3 (30 à 50) | 0 (90 à 100) | 0 (90 à 100) | 
10 | CN(C)S(=O)(=O)n1c(-c2ncccc2C(=O)O)nc2ccccc21 [compound 121] | 0 (90 à 100) | 5 (O à 10) | 5 (O à 10) | 4 (10 à 30) |  | 3 (30 à 50) | 
11 | CCN(CC)S(=O)(=O)n1nc(-c2ccccc2)nc1-c1ncccc1C(=O)O [compound 4] | 3 (30 à 50) | 2 (50 à 70) | 1 (70 à 90) | 2 (50 à 70) |  | 3 (30 à 50) | 
12 | CN(C)S(=O)(=O)n1nc(-c2ccccc2)nc1-c1ncccc1C(=O)O [compound 6] | 0 (90 à 100) | 5 (O à 10) | 5 (O à 10) | 4 (10 à 30) |  | 0 (90 à 100) | ACTIVITE HERBICIDE DE POST LEVEE T R Z (Triticum aestivum): 0 (90 à 100); ACTIVITE HERBICIDE DE POST LEVEE S O L (Solanum nigrum [2]; 2000 g/ha, 576 h): 5 (O à 10); ACTIVITE HERBICIDE DE POST LEVEE X A N (Xanthium pennsylvanicum; 2000 g/ha, 576 h): 4 (10 à 30); ACTIVITE HERBICIDE DE POST LEVEE S E S (Sesbania exaltata; 2000 g/ha, 576 h): 5 (O à 10); ACTIVITE HERBICIDE DE POST LEVEE V I O (Viola tricolor; 2000 g/ha, 576 h): 4 (10 à 30); ACTIVITE HERBICIDE DE POST LEVEE O R Y (Oryza sativa): 0 (90 à 100); ACTIVITE HERBICIDE DE POST LEVEE Z E A (Zea mays): 0 (90 à 100); ACTIVITE HERBICIDE DE POST LEVEE I P O (Ipomea pupurea; 2000 g/ha, 576 h): 5 (O à 10)
13 | O=C(O)c1cccnc1-c1n[nH]c(-c2cc(Cl)ccc2Cl)n1 [compound 73] | 2 (50 à 70) | 3 (30 à 50) | 3 (30 à 50) | 3 (30 à 50) | 2 (50 à 70) | 3 (30 à 50) | 
14 | O=C(O)c1cccnc1-c1n[nH]c(-c2ccccc2)n1 [compound 42, 3 - (3 - carboxy 2 - pyridyl) 5 - phényl 1,2,4 - triazole] |  |  |  |  |  |  | ACTIVITE DE POST-LEVEE SIN (Sinapis alba; [4]): 4 (10 à 30); ACTIVITE DE POST-LEVEE IPO (Ipomea purpurea; [4]): 4 (10 à 30); ACTIVITE DE POST-LEVEE LOL (Lolium multiflorum; [4]): 1 (70 à 90); ACTIVITE DE POST-LEVEE ECH (Echinochloa crusgalli; [4]): 2 (50 à 70)
15 | O=C(O)c1cccnc1-c1n[nH]c(Cc2ccccc2)n1 [compound 45] | 3 (30 à 50) | 2 (50 à 70) | 3 (30 à 50) | 3 (30 à 50) | 2 (50 à 70) | 3 (30 à 50) | 
16 | CN(C)S(=O)(=O)n1nc(-c2ccc(Cl)cc2Cl)nc1-c1ncccc1C(=O)O [compound 3] | 0 (90 à 100) | 2 (50 à 70) | 3 (30 à 50) | 2 (50 à 70) | 0 (90 à 100) | 0 (90 à 100) | 
17 | O=C(O)c1cccnc1-c1n[nH]c(-c2ccc(Cl)cc2Cl)n1 [compound 43] | 3 (30 à 50) | 5 (O à 10) | 3 (30 à 50) | 4 (10 à 30) | 3 (30 à 50) | 4 (10 à 30) | 
